What all share (type): cell-based, human
Assay [1] deals with MCF-7 cells. As to the kind of experiment: Alamar Blue/raptinal 24-hour cell death assay, MCF-7. The note with it: for IC50: 24-hour incubation, Alamar blue fluorescence, normalized to vehicle and raptinal. The procedure:
FIG. 4. […] MCF7 (ERα) cells, 24 hour incubation, read out via Alamar Blue Fluorescence, Dead Control: Raptinal, n=3 (A, B). […] Orthotopic Mouse Xenograft breast cancers of TYS cells, Visualization by bioluminescent imaging. Treatment: 40 mg/kg daily (−)-105 for 3 days either by oral gavage or by intraperitoneal injection.
ALAMAR BLUE/RAPTINAL ASSAY: Live cells maintain a reducing environment. The non-fluorescent cell permeable ingredient of Alamar Blue® (resazurin) is taken up by cells. In living cells, it is reduced to the fluorescent compound resorufin. Using a standard curve of cell number versus fluorescence the number of live cells in a test sample can be determined. At high concentrations raptinal kills 100% of cells. The vehicle in which the test compound is dissolved is not toxic. Thus, after subtracting the blank for medium alone, the fluorescence reading for vehicle corresponds to 100% viable cells and the signal for raptinal corresponds to 0% viable cells. While this assay provides a less direct measurement of cell death than the trypan blue assay, it is more easily scaled up to large numbers of samples.
ALAMAR BLUE RAPTINAL ASSAYS: Cells were plated at 4,000-10,000 cells/well (96 well plate), usually in 50 μl of medium. After about 18 hours, an additional 50 μl of medium containing 2× the desired final concentration of the test compound (C-105) was added to each well. After 24 hours Alamar Blue reagent was added and fluorescence in the wells was read (BMG PheraStar or Molecular Devices Spectra Max M3 Microplate Reader). % relative death was determined by setting the reading for raptinal-treated cells to 100% dead cells and the reading for vehicle-treated cells to 0% dead cells.
Preparative gram-scale chiral separation of (±)-1 yields enantiopure (R)-1 and (S)-1 with opposite optical rotations (Scheme 5). […] Values were obtained after 24-hour incubation utilizing Alamar blue fluorescence assay normalized to live and death controls (vehicle and raptinal treated). (S)-1 IC50 is >1 μM. Error shown as S.E.M.
For orientation: Alamar Blue is a resazurin reagent that responds to reducing activity.

A further assay has as its system TDG cells. The experiment in a line: Trypan Blue exclusion cell death assay, TDG / TDG-Luc. The note with it: 24 hours. The source says: (§1) TRYPAN BLUE: For decades, viable cells have been measured by their ability to exclude the dye Trypan Blue. […] Dead cells, which have lost membrane integrity, take up the dye and are blue. Thus, the percentage of dead cells is the percentage of cells that are Trypan Blue positive out of the total cell population. Quantitative assessment of Trypan Blue uptake uses a cell counter from Fisher. Since the assay is instrument based, there is no observer bias in determining the percentage of Trypan Blue positive cells.
(§2) TRYPAN BLUE ASSAYS: Assays are performed on cells in 6 well plates: 300,000 cells are plated in each well of a 6-well plate in 3 ml of medium. After 24 hours, the DMSO vehicle or the indicated compound is added (in 1000th of the vol.) The cells incubated for an additional 24 hours, and then harvested in 0.25 ml of trypsin, followed after harvest by 0.75 ml of medium. The cells are spun down and resuspended in 100-200 μl of medium left that is over the cell pellet (resuspend cells by pipetting up and down a few times). Add 10 μl to 10 μl of trypan blue. Then 10 μl is inserted into the counting slide. After inserting the slide into the Fisher TC20 counting is automatic (these many cells are needed because an accurate ratio of Trypan Blue positive to Trypan Blue negative cells requires about 200 cells in the field the instrument counts).
The Trypan Blue cell death assay was used to evaluate the ability of the active enantiomer of C-105 [(−)-105] to kill ERα positive TDG-Luc cells. For all studies, 300,000 TDG-Luc cells/well in 10% FBS were plated in a 6-well plate in triplicate. 24 hours after plating, the indicated concentrations the active enantiomer of (−)-105, or BHPI (top) ICI, or OHT (Lower left) or (+)-105 (lower right) were added. After 24 hours, the cells were harvested, and the % dead cells was determined by automated Trypan Blue exclusion using the Countess II automated hemocytometer. Percentage of viable cells was calculated by doing 100-(Cell Death %). (n=3±SEM).
TDG cells were incubated for 24 hours with 75 nM of BHPI or 75 nM of each of the indicated test compounds: 4, 6 and (±)-105 (enantiomers not separated). Cell death was determined using the instrument-based Trypan Blue exclusion assay. Structures are in the Synthesis section. […] (n=3±SEM).

In another assay the test system is T47D cells. The experiment in a line: Trypan Blue exclusion cell death assay, T47D / T47D-Luc. The note with it: 24 hours.
From the text: as §1
as §2, with “After inserting the slide into the Fisher TC20 counting is automatic (these many cells are needed because an accurate ratio of Trypan Blue positive to Trypan Blue negative cells requires about 200 cells in the field the instrument counts).” left out
The Trypan Blue cell death assay was used to compare the ability of the active (−) enantiomer of C-105 and BHPI to kill estrogen receptor α (ERα) positive T47D, human breast cancer cells expressing luciferase (T47D-Luc cells). […] After 24 hours, the cells were harvested, and the % dead cells was determined by automated Trypan Blue exclusion using the Countess II automated hemocytometer. Percentage of viable cells was calculated by doing 100-(Cell Death %). […]
T47D cells were incubated for 24 hours with 75 nM of BHPI or 75 nM of each of the indicated test compounds: 4 and 6. Cell death was determined using the instrument-based Trypan Blue exclusion assay. […]
T47D cells were treated for 24 hours with 100 nM BHPI, or with 100 nM of each of the test compounds: 6, 8, and 105. […] Cell death was determined using the instrument-based Trypan Blue exclusion assay. […]

The test system of a further assay is TYS cells. As to the kind of experiment: Trypan Blue exclusion cell death assay, TYS / TYS-Luc. The note with it: 24 hours.
From the text: as §1, §2
The Trypan Blue cell death assay was used to evaluate the ability of the active enantiomer of 105 (−) [(−)-105] to kill ERα positive MCF-7 and TYS-Luc, human breast cancer cells. 300,000 T47D cells/well in 10% FBS were plated in a 6-well plate in triplicate. 24 hours after plating, the indicated concentrations of BHPI, or the active enantiomer 105 (−) of C-105 [(−)-105] was added. After 24 hours, the cells were harvested, and the % dead cells was determined by automated Trypan Blue exclusion using the Countess II automated hemocytometer. Percentage of viable cells was calculated by doing 100-(Cell Death %). (n=3±SEM).
TYS cells were incubated for 24 hours with 35 nM of BHPI or 35 nM of each of the indicated test compounds: 2, 4, and 105. Cell death was determined using the instrument-based Trypan Blue exclusion assay.
TYS cells were incubated for 24 hours with 50 nM of BHPI or 50 nM of each of the indicated test compounds: 4, 6 and 105. Cell death was determined using the instrument-based Trypan Blue exclusion assay. (n=3±SEM).

The test system of assay [2] is MCF-7 cells. As to the kind of experiment: Dose-dependent death of MCF-7 cells (FIG. 10).

SMILES strings stand for the structures.

As to `O=C1Nc2c(C(F)(F)F)cccc2C1(c1ccc(O)cc1)c1ccc(OC(F)(F)F)cc1` (racemic) [(±)-105, 3-(4-hydroxyphenyl)-3-(4-(trifluoromethoxy)phenyl)-7-(trifluoromethyl)indolin-2-one], the IC50 (usually the concentration that inhibits the measured activity by half) in the assay on MCF-7 cells [1] (Homo sapiens, MCF7) amounted to 42.6 nM. In the assay with TDG cells (75 nM), the “ability to kill TDG cells compared to BHPI” value is reported as “greatly increased ability to kill”. For the same molecule, the “ability to kill T47D cells compared to BHPI” value in the assay on T47D cells (100 nM) is recorded as “increased ability to kill”. The “ability to kill TYS cells compared to BHPI” value with TYS cells (35 nM) was “greatly increased ability to kill”; with TYS cells (50 nM) it was “increased ability to kill”. The cell death entry with MCF-7 cells [2] is “inactive”.
The molecule `O=C1Nc2c(C(F)(F)F)cccc2C1(c1ccc(O)cc1)c1ccc(OC(F)(F)F)cc1` (single isomer, unassigned; (-)) [(−)-105, 3-(4-hydroxyphenyl)-3-(4-(trifluoromethoxy)phenyl)-7-(trifluoromethyl)indolin-2-one] returned an IC50 in the assay with MCF-7 cells [1] (listed as (R)-1) of 20.3 nM. Further, in the assay on MCF-7 cells [1] (24 hour incubation, dead control raptinal), the “ability to kill compared with BHPI and 01-15 (FIG. 4B)” value was “superior to BHPI and 01-15”. Besides, in the assay with TDG cells (TDG-Luc), the “killing of TDG-Luc cells, dose response” value was “superior to BHPI and current endocrine therapies”. Moreover, in the assay with T47D cells (T47D-Luc), the “killing of T47D cells, dose response” value was “superior to BHPI”. For the same molecule, in the assay on TYS cells (TYS-Luc), the “killing of TYS-Luc cells, dose response” value is on record as “superior to BHPI”. In addition, the cell death entry in the assay on MCF-7 cells [2] is on record as “induces dose-dependent death”.

Source of the values: patent US11046647B2, “Activators of the unfolded protein response” (The Board of Trustees of the University of Illinois, priority 2018, dated 2021).
